The text on this data set: As used herein, the term “solubility” in regard to water solubility includes cases where the sample completely dissolves in deionized water to form a homogeneous mixture, and cases where the sample is completely emulsified. As used herein, “completely” means that no mass of the sample remains in the deionized water.

As for `CCCCCCCCCCCCOC(=O)CCCCCCCCCCC` [2-18], the “Water solubility” value is reported as below 0.05 g.
The figure for `CCCCCCCCCCCCCC(=O)OCCCCCCCCCCCC` [2-19] is below 0.05 g.

The values above are taken from patent publication US10322037B2, “Absorbent article” (UNICHARM CORPORATION, priority 2012, dated 2019).
